Source: patent US8637525B2, “Compounds for the reduction of beta-amyloid production” (Bristol-Myers Squibb Company, priority 2009, dated 2014)

test system: Aβ1-42 production; experiment: Cellular assay for inhibition of Aβ1-42 production (H4 APP751 SWE clone 8.20); assay type: cell-based; settings: 19 h, H4 APP751 SWE clone 8.20 cells, 19 h incubation; class symbols; read-out: Activity Rating (Aβ42 cellular IC50)
In short: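 19 h cell treatment, 37 °C/5% CO2. Detection of secreted Aβ42 in the cell plate: 565 (Aβ42-specific, Wallac) and 26D6 (N-terminal, APC), overnight 4 °C. IC50 from fitted curves.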

IC50 | SMILES
1.5 to 9.9 nM | CNc1nc(Nc2ccc(-n3cnc(Cl)c3)c(OC)c2)nc2c1CCC2c1ccc(F)cc1F (single isomer, unassigned) [Example 109A, N^2-(4-(4-Chloro-1H-imidazol-1-yl)-3-methoxyphenyl)-7-(2,4-difluorophenyl)-N^4-methyl-6,7-dihydro-5H-cyclopenta[d]pyrimidine-2,4-diamine]
1.5 to 9.9 nM | CNc1nc(Nc2ccc(-n3ncnc3C)c(OC)c2)nc2c1CC[C@H]2c1ccc(F)cc1 (single isomer, unassigned) [Example 264A]
10 to 100 nM | CNc1nc(Nc2ccc(-n3cnc(C)n3)c(OC)c2)nc2c1CC[C@@]2(C)c1ccc(F)cc1 (single isomer, unassigned) [Example 265A]
10 to 100 nM | CNc1nc(Nc2ccc(-n3cnc(C)n3)c(OC)c2)nc2c1CC[C@H]2c1ccccc1OC (single isomer, unassigned) [Example 266A]
1.5 to 9.9 nM | CNc1nc(Nc2ccc(-n3cnc(C)n3)c(OC)c2)nc2c1CC[C@H]2c1ccccc1Cl (single isomer, unassigned) [Example 268A]
1.5 to 9.9 nM | CNc1nc(Nc2ccc(-n3cnc(C)n3)c(OC)c2)nc2c1CC[C@H]2c1c(F)cc(F)cc1F (single isomer, unassigned) [Example 270A]
1.5 to 9.9 nM | CNc1nc(Nc2ccc(-n3cnc(C)n3)c(OC)c2)nc2c1CC[C@H]2c1ccc(Cl)cc1F (single isomer, unassigned) [Example 271A]
10 to 100 nM | CNc1nc(Nc2ccc(-n3cnc(C)n3)c(OC)c2)nc2c1CC[C@H]2c1cccc(OC)c1 (single isomer, unassigned) [Example 272A]

same assay, conditions: H4 APP751 SWE clone 8.20 cells, 19 h incubation; class symbols; read-out: Activity Rating (Aβ42 cellular IC50)

SMILES | IC50
COc1cc(Nc2nc3c(c(N4CCC(F)(F)C4)n2)CCC3c2cc(F)c(F)c(F)c2)ccc1-n1cnc(Cl)c1 (single isomer, unassigned) [Example 107B, N-(4-(4-chloro-1H-imidazol-1-yl)-3-methoxyphenyl)-4-(3,3-difluoropyrrolidin-1-yl)-7-(3,4,5-trifluorophenyl)-6,7-dihydro-5H-cyclopenta[d]pyrimidin-2-amine] | 100 to 1000 nM
COc1cc(Nc2nc3c(c(N(C)C)n2)CCCC3c2ccc(F)cc2)ccc1-n1cnc(Cl)c1 (single isomer, unassigned) [Example 127B, N^2-(4-(4-chloro-1H-imidazol-1-yl)-3-methoxyphenyl)-8-(4-fluorophenyl)-N^4,N^4-dimethyl-5,6,7,8-tetrahydroquinazoline-2,4-diamine] | 10 to 100 nM
COc1cc(Nc2nc3c(c(N4CC(OC)C4)n2)CCC3c2ccccc2)ccc1-n1cnc(Cl)c1 (single isomer, unassigned) [Example 183B, N-(4-(4-chloro-1H-imidazol-1-yl)-3-methoxyphenyl)-4-(3-methoxyazetidin-1-yl)-7-phenyl-6,7-dihydro-5H-cyclopenta[d]pyrimidin-2-amine] | 10 to 100 nM
CNc1nc(Nc2ccc(-n3cnc(C)n3)c(OC)c2)nc2c1CCC2c1ccc(F)cc1F (single isomer, unassigned) [Example 193A, 7-(2,4-difluorophenyl)-N2-(3-methoxy-4-(3-methyl-1H-1,2,4-triazol-1-yl)phenyl)-N4-methyl-6,7-dihydro-5H-cyclopenta[d]pyrimidine-2,4-diamine] | 100 to 1000 nM
CNc1nc(Nc2ccc(-n3cnc(C)n3)c(OC)c2)nc2c1CCC2c1ccc(F)cc1F (single isomer, unassigned) [Example 193B, 7-(2,4-difluorophenyl)-N2-(3-methoxy-4-(3-methyl-1H-1,2,4-triazol-1-yl)phenyl)-N4-methyl-6,7-dihydro-5H-cyclopenta[d]pyrimidine-2,4-diamine] | 10 to 100 nM
CNc1nc(Nc2ccc(-n3cnc(C)n3)c(OC)c2)nc2c1CN(C)CC2c1ccc(F)cc1 (single isomer, unassigned) [Example 198A, 8-(4-fluorophenyl)-N2-(3-methoxy-4-(3-methyl-1H-1,2,4-triazol-1-yl)phenyl)-N4,6-dimethyl-5,6,7,8-tetrahydropyrido[4,3-d]pyrimidine-2,4-diamine] | 100 to 1000 nM

Continued, values first:

IC50 | SMILES
1.5 to 9.9 nM | COc1cc(Nc2nc3c(c(N4CCC4)n2)CCC3c2ccc(OC(F)(F)F)cc2)ccc1-n1cnc(Cl)c1 (single isomer, unassigned) [Example 101A, 4-(azetidin-1-yl)-N-(4-(4-chloro-1H-imidazol-1-yl)-3-methoxyphenyl)-7-(4-(trifluoromethoxy)phenyl)-6,7-dihydro-5H-cyclopenta[d]pyrimidin-2-amine]
10 to 100 nM | COc1cc(Nc2nc3c(c(N4CCC4)n2)CCC3c2ccc(OC(F)(F)F)cc2)ccc1-n1cnc(Cl)c1 (single isomer, unassigned) [Example 101B, 4-(azetidin-1-yl)-N-(4-(4-chloro-1H-imidazol-1-yl)-3-methoxyphenyl)-7-(4-(trifluoromethoxy)phenyl)-6,7-dihydro-5H-cyclopenta[d]pyrimidin-2-amine]
1.5 to 9.9 nM | CNc1nc(Nc2ccc(-n3cnc(Cl)c3)c(OC)c2)nc2c1CCC2c1cc(F)c(F)c(F)c1 (single isomer, unassigned) [Example 103A, N^2-(4-(4-chloro-1H-imidazol-1-yl)-3-methoxyphenyl)-N^4-methyl-7-(3,4,5-trifluorophenyl)-6,7-dihydro-5H-cyclopenta[d]pyrimidine-2,4-diamine]
10 to 100 nM | CNc1nc(Nc2ccc(-n3cnc(Cl)c3)c(OC)c2)nc2c1CCC2c1cc(F)c(F)c(F)c1 (single isomer, unassigned) [Example 103B, N^2-(4-(4-chloro-1H-imidazol-1-yl)-3-methoxyphenyl)-N^4-methyl-7-(3,4,5-trifluorophenyl)-6,7-dihydro-5H-cyclopenta[d]pyrimidine-2,4-diamine]
10 to 100 nM | COc1cc(Nc2nc3c(c(N4CCC(F)(F)C4)n2)CCC3c2cc(F)c(F)c(F)c2)ccc1-n1cnc(Cl)c1 (single isomer, unassigned) [Example 107A, N-(4-(4-chloro-1H-imidazol-1-yl)-3-methoxyphenyl)-4-(3,3-difluoropyrrolidin-1-yl)-7-(3,4,5-trifluorophenyl)-6,7-dihydro-5H-cyclopenta[d]pyrimidin-2-amine]
1.5 to 9.9 nM | CNc1nc(Nc2ccc(-n3cnc(Cl)c3)c(OC)c2)nc2c1CCC2c1ccc(F)cc1F (single isomer, unassigned) [Example 109B, N^2-(4-(4-Chloro-1H-imidazol-1-yl)-3-methoxyphenyl)-7-(2,4-difluorophenyl)-N^4-methyl-6,7-dihydro-5H-cyclopenta[d]pyrimidine-2,4-diamine]
1.5 to 9.9 nM | CCN(C)c1nc(Nc2ccc(-n3cnc(Cl)c3)c(OC)c2)nc2c1CCCC2c1ccccc1 (single isomer, unassigned) [Example 124A, N^2-(4-(4-Chloro-1H-imidazol-1-yl)-3-methoxyphenyl)-N^4-ethyl-N^4-methyl-8-phenyl-5,6,7,8-tetrahydroquinazoline-2,4-diamine]
10 to 100 nM | CCN(C)c1nc(Nc2ccc(-n3cnc(Cl)c3)c(OC)c2)nc2c1CCCC2c1ccccc1 (single isomer, unassigned) [Example 124B, N^2-(4-(4-Chloro-1H-imidazol-1-yl)-3-methoxyphenyl)-N^4-ethyl-N^4-methyl-8-phenyl-5,6,7,8-tetrahydroquinazoline-2,4-diamine]
1.5 to 9.9 nM | COc1cc(Nc2nc3c(c(N(C)C)n2)CCCC3c2ccc(F)cc2)ccc1-n1cnc(Cl)c1 (single isomer, unassigned) [Example 127A, N^2-(4-(4-chloro-1H-imidazol-1-yl)-3-methoxyphenyl)-8-(4-fluorophenyl)-N^4,N^4-dimethyl-5,6,7,8-tetrahydroquinazoline-2,4-diamine]
1.5 to 9.9 nM | CCNc1nc(Nc2ccc(-n3cnc(Cl)c3)c(OC)c2)nc2c1CCN(CC)C2c1ccc(F)cc1 (single isomer, unassigned) [Example 169A, N2-(4-(4-chloro-1H-imidazol-1-yl)-3-methoxyphenyl)-N4,7-diethyl-8-(4-fluorophenyl)-5,6,7,8-tetrahydropyrido[3,4-d]pyrimidine-2,4-diamine]
1.5 to 9.9 nM | CCNc1nc(Nc2ccc(-n3cnc(Cl)c3)c(OC)c2)nc2c1CCN(C(=O)OC)C2c1ccc(F)cc1 (single isomer, unassigned) [Example 170A, methyl 2-(4-(4-chloro-1H-imidazol-1-yl)-3-methoxyphenylamino)-4-(ethylamino)-8-(4-fluorophenyl)-5,6-dihydropyrido[3,4-d]pyrimidine-7(8H)-carboxylate]
1.5 to 9.9 nM | [2H]C([2H])([2H])Nc1nc(Nc2ccc(-n3cnc(Cl)c3)c(OC)c2)nc2c1CCC2c1ccccc1 (single isomer, unassigned) [Example 176A, N^2-(4-(4-Chloro-1H-imidazol-1-yl)-3-methoxyphenyl)-N^4-trideuteromethyl-7-phenyl-6,7-dihydro-5H-cyclopenta[d]pyrimidine-2,4-diamine]
1.5 to 9.9 nM | [2H]C([2H])([2H])Nc1nc(Nc2ccc(-n3cnc(Cl)c3)c(OC)c2)nc2c1CCC2c1ccccc1 (single isomer, unassigned) [Example 176B, N^2-(4-(4-Chloro-1H-imidazol-1-yl)-3-methoxyphenyl)-N^4-trideuteromethyl-7-phenyl-6,7-dihydro-5H-cyclopenta[d]pyrimidine-2,4-diamine]
1.5 to 9.9 nM | COc1cc(Nc2nc3c(c(N4CC(OC)C4)n2)CCC3c2ccccc2)ccc1-n1cnc(Cl)c1 (single isomer, unassigned) [Example 183A, N-(4-(4-chloro-1H-imidazol-1-yl)-3-methoxyphenyl)-4-(3-methoxyazetidin-1-yl)-7-phenyl-6,7-dihydro-5H-cyclopenta[d]pyrimidin-2-amine]
